Measured values published in ChEMBL document CHEMBL1201862, “PubChem BioAssay data set” (2004).
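Step 1: Grow cells in 96-well plates. Step 2: Expose to compound for 48 hours at 5 concentrations. Step 3: Interpolate endpoints linearly; if unreached, use highest concentration. GI50 is the concentration that inhibits growth by half.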 Calls of active or inactive are those of the source. Cut-off read from the data, not from the text of the source: active = GI50 up to about 1.1 µM and inactive = higher.

How the values were obtained:
Assay in all cases: NCI anticancer screen, dose series, 48 h
BT-549 = test system: BT-549
CCRF-CEM = test system: CCRF-CEM
HOP-62 = test system: HOP-62
HOP-92 = test system: HOP-92
Hs-578T = test system: Hs-578T
IGROV-1 = test system: IGROV-1
M14 = test system: M14
MDA-MB-231 = test system: MDA-MB-231
NCI-H460 = test system: NCI-H460
OVCAR-3 = test system: OVCAR-3
OVCAR-4 = test system: OVCAR-4
PC-3 = test system: PC-3
SF-268 = test system: SF-268
SF-295 = test system: SF-295
SK-MEL-28 = test system: SK-MEL-28
SNB-75 = test system: SNB-75
U-251 = test system: U-251
UACC-257 = test system: UACC-257
UACC-62 = test system: UACC-62
NCI-H226 = test system: NCI-H226

Measured: GI50

CC(C)(C)OC(=O)N1CCC(C(=O)O)CC1
inactive: BT-549 > 100 µM | CCRF-CEM > 100 µM | HOP-62 > 100 µM | HOP-92 > 100 µM | Hs-578T > 100 µM | IGROV-1 > 100 µM | M14 > 100 µM | MDA-MB-231 > 100 µM | NCI-H460 > 100 µM | OVCAR-3 > 100 µM | OVCAR-4 > 100 µM | PC-3 > 100 µM | SF-268 > 100 µM | SF-295 > 100 µM | SK-MEL-28 > 100 µM | SNB-75 > 100 µM | U-251 > 100 µM | UACC-257 > 100 µM | UACC-62 > 100 µM

Cc1nnc(S(=O)(=O)c2ccc(/N=N/c3c(N)nc(N)nc3N)cc2)s1
inactive: BT-549 > 100 µM | CCRF-CEM > 100 µM | HOP-62 > 100 µM | HOP-92 > 100 µM | Hs-578T > 100 µM | IGROV-1 > 100 µM | M14 > 100 µM | MDA-MB-231 > 100 µM | NCI-H226 > 100 µM | NCI-H460 > 100 µM | OVCAR-3 > 100 µM | OVCAR-4 > 100 µM | PC-3 > 100 µM | SF-268 > 100 µM | SF-295 > 100 µM | SK-MEL-28 > 100 µM | U-251 > 100 µM | UACC-257 > 100 µM | UACC-62 > 100 µM

CC(=O)Nc1cc2nc3n(c2cc1C)CCC3OC(C)=O (stereo unspecified)
inactive: BT-549 > 100 µM | CCRF-CEM > 100 µM | HOP-92 > 100 µM | Hs-578T > 100 µM | IGROV-1 > 100 µM | M14 > 100 µM | MDA-MB-231 > 100 µM | NCI-H226 > 100 µM | NCI-H460 > 100 µM | OVCAR-3 > 100 µM | OVCAR-4 > 100 µM | PC-3 > 100 µM | SF-268 > 100 µM | SF-295 > 100 µM | SK-MEL-28 > 100 µM | SNB-75 > 100 µM | U-251 > 100 µM | UACC-257 > 100 µM | UACC-62 > 100 µM

C=C1CC[C@@]2(C)[C@@H]([C@@H]1C)[C@H]1CC[C@@H]3[C@@]4(C)CC[C@H](O)C(C)(C)[C@@H]4CC[C@@]3(C)[C@]1(C)C[C@@H]2O
inactive: BT-549 10 µM | CCRF-CEM 5.83 µM | HOP-62 2.24 µM | HOP-92 1.99 µM | Hs-578T 2.69 µM | IGROV-1 2 µM | M14 4.66 µM | MDA-MB-231 1.96 µM | NCI-H226 5 µM | NCI-H460 2.11 µM | OVCAR-3 2.37 µM | OVCAR-4 2.49 µM | PC-3 2.86 µM | SF-268 2.28 µM | SF-295 3.49 µM | SK-MEL-28 4.12 µM | U-251 1.73 µM | UACC-257 8.07 µM | UACC-62 7.45 µM
